Experimental data published in article PMC7677930, “In Vitro and In Silico ADME-Tox Profiling and Safety Significance of Multifunctional Monoamine Oxidase Inhibitors Targeting Neurodegenerative Diseases” (ACS Chemical Neuroscience, 2020).

Legend:
hBuChE = conditions: cited from earlier work
[1] = metabolic stability, 2 h incubation with human liver microsomes, UPLC-MS; format: in vitro ADME
Excerpt: The metabolic stability of a compound is an important factor that determines its pharmacokinetics and its potential as a drug candidate. Drugs are being metabolized in a variety of tissues including lungs, kidneys, or intestinal walls, but the liver plays an essential role in this process.
Then, the UPLC/MS analyses were done by using a Waters ACQUITY TQD system with the TQ Detector (Waters, Milford, MA, USA). The in silico prediction of the most probable sites of metabolism was done by ADMET Predictor, ver. […]
7.4) at 37 °C in the presence of NADPH Regeneration System (Promega, Madison, WI, USA). […]

hAChE = conditions: cited from earlier work
hS1R = conditions: read-out: KihS1R; cited from earlier work
Huh7 cells [2] = assay: crystal violet cell viability assay on Huh7; format: cell-based, human; conditions: for concentration at which compound began to elicit toxicity: Huh7, crystal violet, 24 h, 1-300 μM tested; for toxicity compared with ASS234: Huh7, crystal violet (Figure 5C)
Protocol: (§1) The human hepatoma cell line (Huh7) was purchased from the American Type Culture Collection (ATCC, Manassas, VA, USA). The generation and characterization of the immortalized mouse hepatocyte cell line WTIIB has been previously described.[24] Cell viability was measured by the quantitative colorimetric MTT (3-[4,5-dimethylthiazol-2-yl]-2,5 diphenyl tetrazolium bromide) assay as previously described, and triarylmethane dye (violet) assay following the protocol adapted from Feoktistova et al.[25] After the incubation period with the compounds, MTT reagent was added to each well at a final concentration of 0.5 mg/mL. The plate was placed in a humidified incubator at 37 °C with 5% CO2 and 95% air for 2 h. Then, the precipitated formazan was dissolved with dimethyl sulfoxide (DMSO) and the colorimetric determination of MTT was measured in the spectrophotometer at 540 nm wavelength. Nontreated cells were considered controls and were taken as 100% viability.
(§2) To perform the crystal violet assay, wells were washed twice in PBS and cells were fixed with 100 μL of crystal violet (Sigma-Aldrich, Madrid, Spain) solution at 0.2% prepared in ethanol. Plates were incubated for 20 min at room temperature in a bench rocker. Next, wells were washed four times with distilled water, and then the plate was inverted gently to remove any remaining liquid. The plate was dried at room temperature for at least 2 h and attached cells were resuspended in SDS 1% for 30 min in a bench rocker. The optical density was measured in the spectrophotometer at 540 nm wavelength. Nontreated cells were considered controls and were taken as 100% viability.

MAO B = conditions: Figure 1; cited from earlier work
MAO A = conditions: Figure 1; cited from earlier work
Huh7 cells [3] = assay: MTT cell viability assay on Huh7; format: cell-based, human; conditions: for concentration at which compound began to elicit toxicity: Huh7, MTT, 24 h, 1-300 μM tested; for toxicity compared with ASS234: Huh7, MTT (Figure 5A)
Protocol: as §1

[4] = precipitation during incubation in MTS assay; format: physicochemical; conditions: 72 h
Protocol: (A) Concentration–response on HEK-293 cells. (B) Concentration–response on HepG2 cells. Statistical significance was evaluated by one-way ANOVA, followed by Bonferroni’s comparison test (****p < 0.0001). DX, doxorubicin; CCCP, carbonyl cyanide 3-chlorophenyl […]. ASS234 precipitated at 100 μM during incubation.
(§3) Cytotoxicity and hepatotoxicity were estimated using the human embryonic kidney HEK-293 cell line (ATCC CRL-1573) and hepatoma HepG2 (ATCC HB-8065) cell line. The CellTiter 96 Aqueous Non-Radioactive Cell Proliferation Assay (MTS) was purchased from Promega (Madison, WI, USA) and performed according to the manufacturer’s protocol. […] The antiproliferative drug doxorubicin (DX) (1 μM) and mitochondrial toxin carbonyl cyanide 3-chlorophenyl-hydrazone (CCCP) (10 μM, only in hepatotoxicity assay) were used as positive controls (purchased from Sigma-Aldrich, St. Louis, MO, USA).

WTIIB cells [5] = assay: crystal violet cell viability assay on WTIIB; format: cell-based, mouse; conditions: for concentration at which compound began to elicit toxicity: crystal violet, 24 h, 1-300 μM tested; for toxicity compared with ASS234: crystal violet (Figure 5D)
Protocol: as §1, §2

WTIIB cells [6] = assay: MTT cell viability assay on WTIIB; format: cell-based, mouse; conditions: for concentration at which compound began to elicit toxicity: MTT, 24 h, 1-300 μM tested
Protocol: as §1

HEK-293 cells = assay: MTS cell viability assay on HEK-293; format: cell-based, human; conditions: HEK-293, MTS, 72 h; tested at 1, 10, 50, 100 μM
Protocol: as §3

HepG2 cells = assay: MTS cell viability assay on HepG2; format: cell-based, human; conditions: 72 h, tested at 1, 10, 50, 100 μM
Protocol: as §3

[7] = molecular target: histamine H3 receptor (H3R); conditions: cited from earlier work
[8] = test system: SH-SY5Y human neuroblastoma cells; design: method as in PMID 28861918; conditions: cited from earlier work

Structure (SMILES) | IC50 (hBuChE) [nM] | parent compound detected after incubation with HLMs [1] | Ki (hS1R) [nM] | concentration at which compound began to elicit toxicity (Huh7 cells [2]) [µM] | IC50 (MAO B) [nM] | IC50 (MAO A) [nM] | concentration at which compound began to elicit toxicity (Huh7 cells [3]) [µM] | concentration at which compound began to elicit toxicity (WTIIB cells [5]) [µM] | concentration at which compound began to elicit toxicity (WTIIB cells [6]) [µM] | further results
C#CCN(C)Cc1cc2cc(OCCCC3CCN(Cc4ccccc4)CC3)ccc2n1C [ASS234] | 1820 | the compound was not detected | 3 | ≥ 30 | 177 | 5 | ≥ 30 | ≥ 30 | ≥ 30 | IC50 (hAChE): 810 nM; concentration at which compound precipitated during incubation [4]: 100 µM
C#CCNCc1cc2cc(OCc3ccccc3)ccc2[nH]1 [PF9601N, N-(2-Propynyl)-2-(5-Benzyloxy-Indolyl) Methylamine] |  | 95% |  |  | 22 | 1250 |  |  |  | 
C#CCN(C)Cc1cc2cc(OCCCN3CCCCC3)ccc2n1C [contilisant] | 1690 | 97% | 65 | ≥ 30 | 78 |  | ≥ 30 | 100 | 100 | toxicity compared with ASS234 (Huh7 cells [2]; 30 μM): less toxic than ASS234; toxicity compared with ASS234 (Huh7 cells [2]; 300 μM): more toxic than ASS234; concentration range not affecting cell viability (HEK-293 cells): up to 10 μM; concentration range not affecting cell viability (HepG2 cells): up to 50 μM; Ki [7]: 11 nM; effective concentration used in neuroprotection experiments [8]: 0.3 to 3 µM; toxicity compared with ASS234 (Huh7 cells [3]; 30 μM): less toxic than ASS234; toxicity compared with ASS234 (Huh7 cells [3]; 300 μM): more toxic than ASS234; concentration range not affecting cell viability (Huh7 cells [3]; Huh7, abstract, assay not specified (MTT / crystal violet)): up to 30 μM; toxicity compared with ASS234 (WTIIB cells [5]; 100 μM): less toxic than ASS234; toxicity compared with ASS234 (WTIIB cells [5]; 300 μM): more toxic than ASS234; toxicity compared with ASS234 (WTIIB cells [6]; 300 μM, MTT (Figure 5B)): more toxic than ASS234
C#CCN(C)[C@H](C)Cc1ccccc1 [selegiline, reference compound] |  |  |  |  |  |  |  |  |  | fraction of compound metabolized by HLMs [1]: about 54%
